Data taken from patent US20260116920A1, “HUMAN TRANSFERRIN RECEPTOR BINDING PEPTIDE” (PEPTIDREAM INC., priority 2021, published 2026).
Positions of bridges follow the written chain, without caps; N, C: chain ends. Non-standard residues stand in square brackets, D forms with d. Residues, ends and D or L forms follow the SMILES beside them. *: point of attachment. Trp(1-CH2COOH) = N[C@@H](Cc1cn(CC(=O)O)c2ccccc12)C(=O)O; Nle(6-morpholino) = N[C@@H](CCCCN1CCOCC1)C(=O)O; Phe(3-COOH) = N[C@@H](Cc1cccc(C(=O)O)c1)C(=O)O; Trp(7-aza) = N[C@@H](Cc1c[nH]c2ncccc12)C(=O)O; NH(CH2CH2O)8Me = COCCOCCOCCOCCOCCOCCOCCOCCN*; NMePhe(3-Cl) = CN[C@@H](Cc1cccc(Cl)c1)C(=O)O; 3Pal(6-NH2) = Nc1ccc(C[C@H](N)C(=O)O)cn1; NMeY = CN[C@@H](Cc1ccc(O)cc1)C(=O)O; PEG4 = NCCOCCOCCOCCOCCC(=O)O; Carboxymethyl = O=C(O)C*

Molecular target: T1, human transferrin receptor (hTfR) (Homo sapiens, UniProt P02786)
T1 construct: made in house
Assay: Evaluation of molecular interaction between transferrin receptor (hTfR) and peptide using surface plasmon resonance (SPR)
Format: binding
Details: peptide with linker, surface plasmon resonance; read-out: SPR (KD class for binding to hTfR)
Outline: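 Recombinant human TfR dimer (0.5 μM) was captured on a Ni-charged NTA chip and amine-coupled with EDC/NHS, then ethanolamine-capped. Peptides at 5–100 nM in HEPES pH 8.0 buffer with 150 mM NaCl, 0.05% Tween 20, 0.1% BSA and 1.0% DMSO were run by single-cycle kinetics; KD came from least-squares curve fitting.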

T1 sequence (P02786 89-760 limits assumed): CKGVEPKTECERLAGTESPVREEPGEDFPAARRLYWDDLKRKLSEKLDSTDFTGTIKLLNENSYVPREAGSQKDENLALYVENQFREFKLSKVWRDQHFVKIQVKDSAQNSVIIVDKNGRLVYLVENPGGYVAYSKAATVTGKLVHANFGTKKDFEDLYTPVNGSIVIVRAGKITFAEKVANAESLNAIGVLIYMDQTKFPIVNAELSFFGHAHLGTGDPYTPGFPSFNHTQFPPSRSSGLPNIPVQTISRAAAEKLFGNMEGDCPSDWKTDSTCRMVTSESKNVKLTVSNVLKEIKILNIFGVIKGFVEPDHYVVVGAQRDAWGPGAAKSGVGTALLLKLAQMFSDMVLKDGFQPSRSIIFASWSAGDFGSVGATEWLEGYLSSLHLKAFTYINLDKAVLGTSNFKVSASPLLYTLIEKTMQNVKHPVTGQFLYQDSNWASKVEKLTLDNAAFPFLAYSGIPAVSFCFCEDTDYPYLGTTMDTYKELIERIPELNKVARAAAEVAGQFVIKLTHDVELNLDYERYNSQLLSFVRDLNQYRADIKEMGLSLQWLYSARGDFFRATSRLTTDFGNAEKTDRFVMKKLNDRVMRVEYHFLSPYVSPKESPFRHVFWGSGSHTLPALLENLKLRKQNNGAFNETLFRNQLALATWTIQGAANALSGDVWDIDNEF

SMILES	Kd [nM]
CC[C@H](C)[C@@H]1NC(=O)[C@H](Cc2ccc(OCC(=O)O)cc2)NC(=O)[C@H](Cc2ccc(O)cc2)NC(=O)[C@H](CC(N)=O)NC(=O)[C@H](Cc2cn(CC(=O)O)c3ccccc23)NC(=O)[C@H](C(C)C)NC(=O)[C@H](Cc2cccc(Cl)c2)N(C)C(=O)[C@H](C(C)C)NC(=O)[C@H](C)NC(=O)CSC[C@@H](C(=O)NCCOCCOCCOCCOCCC(N)=O)NC(=O)[C@H](Cc2ccc(O)cc2)N(C)C(=O)[C@H](Cc2cccc(C(=O)O)c2)NC(=O)[C@H](CCCCN2CCOCC2)NC(=O)[C@H](CCC(N)=O)NC(=O)[C@H]([C@@H](C)CC)NC1=O [compound 216] ({CH2CO}-AV[NMePhe(3-Cl)]V[Trp(1-CH2COOH)]NYY(Carboxymethyl)IIQ[Nle(6-morpholino)][Phe(3-COOH)][NMeY]C[PEG4]-NH2; thioether N-15)	1 to 100
CC[C@H](C)[C@@H]1NC(=O)[C@H](Cc2ccc(OCC(=O)O)cc2)NC(=O)[C@H](Cc2ccc(O)cc2)NC(=O)[C@H](CC(N)=O)NC(=O)[C@H](Cc2c[nH]c3ncccc23)NC(=O)[C@H](C(C)C)NC(=O)[C@H](Cc2cccc(Cl)c2)N(C)C(=O)[C@H](C(C)C)NC(=O)[C@H](C)NC(=O)CSC[C@@H](C(=O)NCCOCCOCCOCCOCCC(N)=O)NC(=O)[C@H](Cc2ccc(O)cc2)N(C)C(=O)[C@H](Cc2cccc(C(=O)O)c2)NC(=O)[C@H](CCCCN2CCOCC2)NC(=O)[C@H](CCC(=O)NCCOCCOCCOCCOCCOCCOCCOCCOC)NC(=O)[C@H]([C@@H](C)CC)NC1=O [compound 220] ({CH2CO}-AV[NMePhe(3-Cl)]V[Trp(7-aza)]NYY(Carboxymethyl)IIE(NH(CH2CH2O)8Me)[Nle(6-morpholino)][Phe(3-COOH)][NMeY]C[PEG4]-NH2; thioether N-15)	1 to 100
CC[C@H](C)[C@@H]1NC(=O)[C@H](Cc2ccc(OCC(=O)O)cc2)NC(=O)[C@H](Cc2ccc(N)nc2)NC(=O)[C@H](CC(N)=O)NC(=O)[C@H](Cc2cn(CC(=O)O)c3ccccc23)NC(=O)[C@H](C(C)C)NC(=O)[C@H](Cc2cccc(Cl)c2)N(C)C(=O)[C@H](C(C)C)NC(=O)[C@H](C)NC(=O)CSC[C@@H](C(=O)NCCOCCOCCOCCOCCC(N)=O)NC(=O)[C@H](Cc2ccc(O)cc2)N(C)C(=O)[C@H](Cc2ccncc2)NC(=O)[C@H](CCCNC(=N)N)NC(=O)[C@H](CCC(=O)NCCOCCOCCOCCOCCOCCOCCOCCOC)NC(=O)[C@H]([C@@H](C)CC)NC1=O [compound 222]	1 to 100
CC[C@H](C)[C@@H]1NC(=O)[C@H](Cc2ccc(OCC(=O)O)cc2)NC(=O)[C@H](Cc2ccc(N)nc2)NC(=O)[C@H](CC(N)=O)NC(=O)[C@H](Cc2cn(CC(=O)O)c3ccccc23)NC(=O)[C@H](C(C)C)NC(=O)[C@H](Cc2cccc(Cl)c2)N(C)C(=O)[C@H](C(C)C)NC(=O)[C@H](C)NC(=O)CSC[C@@H](C(=O)NCCOCCOCCOCCOCCC(N)=O)NC(=O)[C@H](Cc2ccc(O)cc2)N(C)C(=O)[C@H](Cc2cccc(C(=O)O)c2)NC(=O)[C@H](CCCNC(=N)N)NC(=O)[C@H](CCC(=O)NCCOCCOCCOCCOCCOCCOCCOCCOC)NC(=O)[C@H]([C@@H](C)CC)NC1=O [compound 223] ({CH2CO}-AV[NMePhe(3-Cl)]V[Trp(1-CH2COOH)]N[3Pal(6-NH2)]Y(Carboxymethyl)IIE(NH(CH2CH2O)8Me)R[Phe(3-COOH)][NMeY]C[PEG4]-NH2; thioether N-15)	1 to 100

Other lines, results leading:

Kd [nM]	SMILES
1 to 100	CC[C@H](C)[C@@H]1NC(=O)[C@H](Cc2ccc(OCC(=O)O)cc2)NC(=O)[C@H](Cc2ccc(O)cc2)NC(=O)[C@H](CC(N)=O)NC(=O)[C@H](Cc2cn(CC(=O)O)c3ccccc23)NC(=O)[C@H](C(C)C)NC(=O)[C@H](Cc2cccc(Cl)c2)N(C)C(=O)[C@H](C(C)C)NC(=O)[C@H](C)NC(=O)CSC[C@@H](C(=O)NCCOCCOCCOCCOCCC(N)=O)NC(=O)[C@H](Cc2ccc(O)cc2)N(C)C(=O)[C@H](Cc2cccc(C(=O)O)c2)NC(=O)[C@H](CCCCN2CCOCC2)NC(=O)[C@H](CCC(=O)NCCOCCOCCOCCOCCOCCOCCOCCOC)NC(=O)[C@H]([C@@H](C)CC)NC1=O [compound 217] ({CH2CO}-AV[NMePhe(3-Cl)]V[Trp(1-CH2COOH)]NYY(Carboxymethyl)IIE(NH(CH2CH2O)8Me)[Nle(6-morpholino)][Phe(3-COOH)][NMeY]C[PEG4]-NH2; thioether N-15)
1 to 100	CC[C@H](C)[C@@H]1NC(=O)[C@H](Cc2ccc(OCC(=O)O)cc2)NC(=O)[C@H](Cc2ccc(O)cc2)NC(=O)[C@H](CC(N)=O)NC(=O)[C@H](Cc2c[nH]c3ncccc23)NC(=O)[C@H](C(C)C)NC(=O)[C@H](Cc2cccc(Cl)c2)N(C)C(=O)[C@H](C(C)C)NC(=O)[C@H](C)NC(=O)CSC[C@@H](C(=O)NCCOCCOCCOCCOCCC(N)=O)NC(=O)[C@H](Cc2ccc(O)cc2)N(C)C(=O)[C@H](Cc2ccncc2)NC(=O)[C@H](CCCNC(=N)N)NC(=O)[C@H](CCC(=O)NCCOCCOCCOCCOCCOCCOCCOCCOC)NC(=O)[C@H]([C@@H](C)CC)NC1=O [compound 218]
1 to 100	CC[C@H](C)[C@@H]1NC(=O)[C@H](Cc2ccc(OCC(=O)O)cc2)NC(=O)[C@H](Cc2ccc(O)cc2)NC(=O)[C@H](CC(N)=O)NC(=O)[C@H](Cc2cn(CC(=O)O)c3ccccc23)NC(=O)[C@H](C(C)C)NC(=O)[C@H](Cc2cccc(Cl)c2)N(C)C(=O)[C@H](C(C)C)NC(=O)[C@H](C)NC(=O)CSC[C@@H](C(=O)NCCOCCOCCOCCOCCC(N)=O)NC(=O)[C@H](Cc2ccc(O)cc2)N(C)C(=O)[C@H](Cc2ccncc2)NC(=O)[C@H](CCCCN2CCOCC2)NC(=O)[C@H](CCC(=O)NCCOCCOCCOCCOCCOCCOCCOCCOC)NC(=O)[C@H]([C@@H](C)CC)NC1=O [compound 219]
1 to 100	CC[C@H](C)[C@@H]1NC(=O)[C@H](Cc2ccc(OCC(=O)O)cc2)NC(=O)[C@H](Cc2ccc(O)cc2)NC(=O)[C@H](CC(N)=O)NC(=O)[C@H](Cc2c[nH]c3ncccc23)NC(=O)[C@H](C(C)C)NC(=O)[C@H](Cc2cccc(Cl)c2)N(C)C(=O)[C@H](C(C)C)NC(=O)[C@H](C)NC(=O)CSC[C@@H](C(=O)NCCOCCOCCOCCOCCC(N)=O)NC(=O)[C@H](Cc2ccc(O)cc2)N(C)C(=O)[C@H](CCC(=O)NCCOCCOCCOCCOCCOCCOCCOCCOC)NC(=O)[C@H](CCCNC(=N)N)NC(=O)[C@H](CCC(=O)NCCOCCOCCOCCOCCOCCOCCOCCOC)NC(=O)[C@H]([C@@H](C)CC)NC1=O [compound 221] ({CH2CO}-AV[NMePhe(3-Cl)]V[Trp(7-aza)]NYY(Carboxymethyl)IIE(NH(CH2CH2O)8Me)RE(NH(CH2CH2O)8Me)[NMeY]C[PEG4]-NH2; thioether N-15)

Same assay, conditions: surface plasmon resonance, binding to hTfR; KD class symbol; read-out: SPR (KD value)

Kd [nM]	SMILES
100 to 1000	CC[C@H](C)[C@@H]1NC(=O)[C@H](Cc2ccc(OCC(=O)O)cc2)NC(=O)[C@H](Cc2ccc(N)nc2)NC(=O)[C@H](CC(N)=O)NC(=O)[C@H](Cc2c[nH]c3ccccc23)NC(=O)[C@H](C(C)C)NC(=O)[C@H](Cc2cccc(Cl)c2)N(C)C(=O)[C@H](C(C)C)NC(=O)[C@H](C)NC(=O)CSC[C@@H](C(=O)NCCOCCOCCOCCOCCC(N)=O)NC(=O)[C@H](Cc2ccc(O)cc2)N(C)C(=O)[C@H](Cc2ccncc2)NC(=O)[C@H](CCCNC(=N)N)NC(=O)[C@H](CCC(=O)NCCOCCOCCOCCOCCOCCOCCOCCOC)NC(=O)[C@H]([C@@H](C)CC)NC1=O [compound 141]
